Measured values reported in PMC4039110, “The histone demethylase JMJD1A induces cell migration and invasion by up-regulating the expression of the long noncoding RNA MALAT1” (Oncotarget, 2014).

Assays:
BE(2)-C cells [1] = test: Matrigel cell invasion assay; type: cell-based, human; conditions: 67μM DMOG for 20 hours, invasion quantified 22 hours later, vs vehicle control
Method: BE(2)-C cells were transfected with siRNA or treated with JMJD1A inhibitors for 20 hours, and then detached and added onto BD Falcon Cell Culture Inserts coated with Matrigel inside BD BioCoat Matrigel Invasion Chambers (Becton Dickinson, Bedford, MA, USA). Cells invaded through Matrigel to the bottom side of the inserts were stained with toluidine blue, photographed under microscope and quantified.

BE(2)-C cells [2] = test: Cell migration (wound healing) assay with Ibidi Culture Inserts; type: cell-based, human; conditions: 67μM DMOG vs vehicle control
Method: Ibidi Culture Inserts (DKSH, Sydney, Australia) were placed in the center of 6 well plates. BE(2)-C cells were added into the wells outside the inserts. Sixteen hours later, the inserts were removed to create “wounds”. Photos of the “wounds” were taken under microscope, and the areas of the remaining “wounds” were measured and analyzed with Image J software (National Institutes of Health, USA).

MALAT1 = test: Real-time RT-PCR of MALAT1 RNA expression in BE(2)-C cells; type: cell-based, human; conditions: 67μM DMOG, 48 hours, vs vehicle control
Source text: Gene expression in tumor cells was examined by quantitative real-time RT-PCR as described previously. For the analysis of protein expression by immunoblot, cells were lysed, protein extracted and separated by gel electrophoresis. After western transfer, membranes were probed with mouse anti-N-Myc antibody (1:1000) (Santa Cruz Biotech, CA, USA) or rabbit anti-JMJD1A antibody (1:500) (Abcam, Cambridge, MA, USA), followed by horseradish peroxidase-conjugated anti-mouse (1:10000) or anti-rabbit (1:20000) antiserum (Santa Cruz Biotech). Protein bands were visualized with SuperSignal (Pierce, Rockford, IL, USA). The membranes were lastly re-probed with an anti-actin antibody (Sigma, St Louis, MO, USA) as loading controls.

BE(2)-C cells [3] = test: Cell proliferation, Alamar blue assay, BE(2)-C; type: cell-based, human; conditions: range of doses of DMOG, 72 hours
Method: Cell proliferation was examined with Alamar blue assays. Briefly, cells were plated into 96 well plates, transfected with various siRNAs or treated with different dosages of DMOG. Seventy-two hours later, cells were incubated with Alamar blue (Invitrogen) for 5 hours, and plates were then read on a micro-plate reader at 570/595 nm. Results were calculated according to the optical density absorbance units and expressed as percentage changes in cell numbers.

JMJD2A = target: T1, JMJD2A (Homo sapiens, UniProt O75164); test: Histone demethylase inhibition assay, JMJD2A; type: biochemical; conditions: in vitro; compared with JMJD1A
T1 sequence (O75164 1-1064): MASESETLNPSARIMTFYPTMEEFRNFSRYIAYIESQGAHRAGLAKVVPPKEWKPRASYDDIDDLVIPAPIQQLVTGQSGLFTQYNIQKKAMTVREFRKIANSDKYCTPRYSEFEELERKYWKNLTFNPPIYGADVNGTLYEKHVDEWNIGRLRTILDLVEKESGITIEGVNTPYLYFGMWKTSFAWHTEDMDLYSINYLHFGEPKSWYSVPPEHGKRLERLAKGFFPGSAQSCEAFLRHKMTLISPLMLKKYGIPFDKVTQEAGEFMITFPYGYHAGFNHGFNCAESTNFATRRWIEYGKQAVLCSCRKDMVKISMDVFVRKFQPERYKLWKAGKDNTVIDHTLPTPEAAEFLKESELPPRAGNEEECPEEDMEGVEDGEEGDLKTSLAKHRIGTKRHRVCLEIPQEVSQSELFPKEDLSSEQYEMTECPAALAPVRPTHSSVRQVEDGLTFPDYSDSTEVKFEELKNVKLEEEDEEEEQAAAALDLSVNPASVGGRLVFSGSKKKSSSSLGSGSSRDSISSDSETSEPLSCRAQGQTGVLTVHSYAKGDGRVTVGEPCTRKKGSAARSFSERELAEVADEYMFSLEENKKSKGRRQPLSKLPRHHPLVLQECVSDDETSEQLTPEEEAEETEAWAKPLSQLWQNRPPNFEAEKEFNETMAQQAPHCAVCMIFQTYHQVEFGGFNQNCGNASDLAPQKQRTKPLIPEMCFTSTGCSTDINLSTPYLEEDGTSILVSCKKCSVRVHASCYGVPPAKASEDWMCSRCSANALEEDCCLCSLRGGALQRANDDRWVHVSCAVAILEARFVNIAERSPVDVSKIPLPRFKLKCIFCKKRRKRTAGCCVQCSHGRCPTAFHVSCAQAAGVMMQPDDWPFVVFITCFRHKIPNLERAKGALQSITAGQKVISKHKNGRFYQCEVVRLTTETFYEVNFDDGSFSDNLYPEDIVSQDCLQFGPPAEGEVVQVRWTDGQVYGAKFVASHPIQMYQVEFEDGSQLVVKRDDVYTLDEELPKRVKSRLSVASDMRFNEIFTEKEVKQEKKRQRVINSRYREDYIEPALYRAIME

JMJD2C = target: T2, JMJD2C (Homo sapiens, UniProt Q9H3R0); test: Histone demethylase inhibition assay, JMJD2C; type: biochemical; conditions: in vitro; compared with JMJD1A
T2 sequence (Q9H3R0 1-1056): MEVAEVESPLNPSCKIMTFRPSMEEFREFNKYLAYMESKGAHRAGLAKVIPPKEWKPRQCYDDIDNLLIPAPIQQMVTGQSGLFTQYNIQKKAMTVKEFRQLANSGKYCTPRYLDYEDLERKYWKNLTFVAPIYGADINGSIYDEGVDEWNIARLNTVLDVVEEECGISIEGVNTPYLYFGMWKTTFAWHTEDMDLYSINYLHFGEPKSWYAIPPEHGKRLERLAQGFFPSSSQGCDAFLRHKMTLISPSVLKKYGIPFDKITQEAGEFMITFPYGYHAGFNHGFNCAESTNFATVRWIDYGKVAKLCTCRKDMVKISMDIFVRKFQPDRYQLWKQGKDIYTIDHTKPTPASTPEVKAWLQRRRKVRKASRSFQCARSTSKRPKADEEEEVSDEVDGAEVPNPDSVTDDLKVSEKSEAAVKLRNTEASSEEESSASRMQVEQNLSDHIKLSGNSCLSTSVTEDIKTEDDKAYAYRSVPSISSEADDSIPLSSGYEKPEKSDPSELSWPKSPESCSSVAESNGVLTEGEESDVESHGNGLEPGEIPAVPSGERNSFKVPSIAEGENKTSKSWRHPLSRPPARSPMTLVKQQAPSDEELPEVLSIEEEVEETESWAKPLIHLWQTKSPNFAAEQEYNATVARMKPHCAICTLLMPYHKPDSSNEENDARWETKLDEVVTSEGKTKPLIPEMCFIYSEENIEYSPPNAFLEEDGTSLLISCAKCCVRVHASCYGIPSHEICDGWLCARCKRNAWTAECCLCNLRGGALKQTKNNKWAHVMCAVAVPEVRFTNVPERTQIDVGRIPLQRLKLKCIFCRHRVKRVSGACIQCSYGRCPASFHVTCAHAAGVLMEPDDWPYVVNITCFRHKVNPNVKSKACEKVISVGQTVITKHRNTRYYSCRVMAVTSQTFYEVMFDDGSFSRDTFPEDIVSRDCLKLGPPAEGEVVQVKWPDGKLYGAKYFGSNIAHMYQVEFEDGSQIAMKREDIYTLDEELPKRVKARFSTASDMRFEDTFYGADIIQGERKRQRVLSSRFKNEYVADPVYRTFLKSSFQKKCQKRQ

JARID1A = JARID1A (Homo sapiens, UniProt P29375); test: Formaldehyde dehydrogenase-coupled assay, JARID1A; type: biochemical; conditions: in vitro; compared with JMJD1A
Chain of JARID1A (P29375 whole entry): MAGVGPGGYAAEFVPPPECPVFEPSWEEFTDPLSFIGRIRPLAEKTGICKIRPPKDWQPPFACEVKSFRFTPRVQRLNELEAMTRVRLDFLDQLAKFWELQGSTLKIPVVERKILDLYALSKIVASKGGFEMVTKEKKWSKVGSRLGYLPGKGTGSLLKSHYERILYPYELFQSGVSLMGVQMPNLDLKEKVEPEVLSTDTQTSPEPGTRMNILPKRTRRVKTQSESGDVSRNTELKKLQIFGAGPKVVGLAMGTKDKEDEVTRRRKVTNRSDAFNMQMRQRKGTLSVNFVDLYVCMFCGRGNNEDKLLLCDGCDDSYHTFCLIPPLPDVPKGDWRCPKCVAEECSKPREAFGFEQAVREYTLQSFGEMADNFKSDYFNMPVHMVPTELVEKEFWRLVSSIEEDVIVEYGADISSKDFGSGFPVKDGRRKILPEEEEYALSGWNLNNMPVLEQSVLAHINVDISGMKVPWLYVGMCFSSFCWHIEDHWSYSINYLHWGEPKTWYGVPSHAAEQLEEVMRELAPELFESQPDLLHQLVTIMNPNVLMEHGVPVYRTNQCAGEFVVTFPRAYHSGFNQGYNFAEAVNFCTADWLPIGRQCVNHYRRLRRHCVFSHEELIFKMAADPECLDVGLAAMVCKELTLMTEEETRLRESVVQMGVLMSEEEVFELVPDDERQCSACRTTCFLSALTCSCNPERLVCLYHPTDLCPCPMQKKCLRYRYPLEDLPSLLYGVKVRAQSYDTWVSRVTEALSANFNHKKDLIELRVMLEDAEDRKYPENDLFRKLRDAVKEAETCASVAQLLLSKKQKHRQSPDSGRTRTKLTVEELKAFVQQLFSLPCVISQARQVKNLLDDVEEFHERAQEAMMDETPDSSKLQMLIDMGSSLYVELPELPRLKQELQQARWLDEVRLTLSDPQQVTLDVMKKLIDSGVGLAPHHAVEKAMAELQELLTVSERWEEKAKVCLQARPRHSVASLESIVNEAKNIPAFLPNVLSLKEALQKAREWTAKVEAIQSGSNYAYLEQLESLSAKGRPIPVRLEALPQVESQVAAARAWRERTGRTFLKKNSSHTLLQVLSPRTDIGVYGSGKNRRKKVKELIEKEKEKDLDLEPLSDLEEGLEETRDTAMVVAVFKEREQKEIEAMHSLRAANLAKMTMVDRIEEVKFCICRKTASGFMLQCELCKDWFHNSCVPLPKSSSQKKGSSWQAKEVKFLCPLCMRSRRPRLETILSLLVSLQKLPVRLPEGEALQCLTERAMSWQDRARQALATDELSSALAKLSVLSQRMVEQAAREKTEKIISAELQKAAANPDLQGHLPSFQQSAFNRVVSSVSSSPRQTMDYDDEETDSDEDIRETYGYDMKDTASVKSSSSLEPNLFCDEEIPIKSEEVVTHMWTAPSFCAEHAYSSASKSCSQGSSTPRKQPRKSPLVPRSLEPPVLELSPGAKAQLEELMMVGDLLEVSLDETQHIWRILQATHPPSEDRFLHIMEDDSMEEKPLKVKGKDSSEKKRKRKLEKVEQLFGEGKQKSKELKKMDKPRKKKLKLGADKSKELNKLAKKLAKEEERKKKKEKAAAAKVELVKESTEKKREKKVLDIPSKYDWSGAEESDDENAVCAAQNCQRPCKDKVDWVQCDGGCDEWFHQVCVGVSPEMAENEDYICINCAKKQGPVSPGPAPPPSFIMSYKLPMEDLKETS

Structure (SMILES)	Reduction of cell invasion through Matrigel (BE(2)-C cells [1])	Increase in area of remaining wounds (BE(2)-C cells [2]; 32 hours after removal of inserts)	Increase in area of remaining wounds (BE(2)-C cells [2]; 48 hours after removal of inserts) [%]	MALAT1 gene expression (MALAT1)	Cell proliferation (viable cells, Alamar blue) (BE(2)-C cells [3])	Inhibition of other histone demethylases (JMJD2A), concentration in words (JMJD2A)	Inhibition of other histone demethylases (JMJD2C), concentration in words (JMJD2C)	Inhibition of other histone demethylases (JARID1A), concentration in words (JARID1A)
COC(=O)CNC(=O)C(=O)OC [DMOG]	approximately 52%	approximately 47%	~895	reduced	no effect			
O=C(O)CNC(=O)C(=O)O [NOG, N-oxalylglycine]						much higher concentrations	much higher concentrations	much higher concentrations
